From PubChem BioAssay AID1745844 (Carcinogenic Potency Database (CPDB), 2022)
Calls of active or inactive are those of the source. How the calls were made is not given here.

Tested on: rodent lifetime carcinogenesis bioassay, tumor incidence TD50
Test: chronic cancer bioassays in animals – CPDB, compiled studies (AID 1745844)

`Cc1ccc(N=C=O)cc1N=C=O` was tested, and the TD50 (mouse, strain B6C3F1, females, by gavage, site: abdominal cavity + liver + ovary + spleen + subcutaneous tissue, lesion: hemangiosarcoma + hemangioma, dosed 105 weeks, study length 107 weeks) was 580 mg/kg/day, the TD50 (mouse, strain B6C3F1, females, by gavage, site: abdominal cavity + liver + ovary + spleen + subcutaneous tissue, lesion: hemangiosarcoma + hepatocellular adenoma + hemangioma, dosed 105 weeks, study length 107 weeks) was 181 mg/kg/day and the TD50 (mouse, strain B6C3F1, females, by gavage, site: abdominal cavity + liver + ovary, lesion: hemangiosarcoma, dosed 105 weeks, study length 107 weeks) was 1200 mg/kg/day. It also gave a TD50 (mouse, strain B6C3F1, females, by gavage, site: any site (literature study), lesion: several types, types named in the paper, dosed 105 weeks, study length 107 weeks) of 305 mg/kg/day, a TD50 (mouse, strain B6C3F1, females, by gavage, site: liver, lesion: hepatocellular adenoma + hepatocellular carcinoma + neoplastic nodule, dosed 105 weeks, study length 107 weeks) of 215 mg/kg/day and a TD50 (mouse, strain B6C3F1, females, by gavage, site: liver, lesion: hepatocellular adenoma + hepatocellular carcinoma, dosed 105 weeks, study length 107 weeks) of 215 mg/kg/day. The TD50 (mouse, strain B6C3F1, females, by gavage, site: liver, lesion: hepatocellular adenoma, dosed 105 weeks, study length 107 weeks) was 250 mg/kg/day, the TD50 (mouse, strain B6C3F1, females, by gavage, site: lung, lesion: alveolar/bronchiolar adenoma + alveolar/bronchiolar carcinoma, dosed 105 weeks, study length 107 weeks) was 815 mg/kg/day and the TD50 (mouse, strain B6C3F1, males, by gavage, site: any site (literature study), lesion: several types, types named in the paper, dosed 105 weeks, study length 107 weeks) was 253 mg/kg/day (inactive). For the same compound, the TD50 (mouse, strain B6C3F1, males, by gavage, site: lung, lesion: alveolar/bronchiolar adenoma + alveolar/bronchiolar carcinoma, dosed 105 weeks, study length 107 weeks) was 1920 mg/kg/day, the carcinogen call (mouse, strain Charles River CD1, females, inhaled, site: any site (literature study), lesion: benign tumor, dosed 104 weeks, study length 104 weeks) was “negative (inactive)” and the carcinogen call (mouse, strain Charles River CD1, females, inhaled, site: any site (literature study), lesion: malignant tumor, dosed 104 weeks, study length 104 weeks) was “negative (inactive)”. The carcinogen call (mouse, strain Charles River CD1, females, inhaled, site: any site (literature study), lesion: several types, types named in the paper, dosed 104 weeks, study length 104 weeks) was “negative (inactive)”, the carcinogen call (mouse, strain Charles River CD1, females, inhaled, site: liver, lesion: hepatocellular adenoma, dosed 104 weeks, study length 104 weeks) was “negative (inactive)” and the carcinogen call (mouse, strain Charles River CD1, females, inhaled, site: liver, lesion: hepatocellular carcinoma, dosed 104 weeks, study length 104 weeks) was “negative (inactive)”. For the same compound, the carcinogen call (mouse, strain Charles River CD1, females, inhaled, site: lung, lesion: adenoma, dosed 104 weeks, study length 104 weeks) was “negative (inactive)”, the carcinogen call (mouse, strain Charles River CD1, females, inhaled, site: lung, lesion: carcinoma, dosed 104 weeks, study length 104 weeks) was “negative (inactive)” and the carcinogen call (mouse, strain Charles River CD1, males, inhaled, site: any site (literature study), lesion: benign tumor, dosed 104 weeks, study length 104 weeks) was “negative (inactive)”. The carcinogen call (mouse, strain Charles River CD1, males, inhaled, site: any site (literature study), lesion: malignant tumor, dosed 104 weeks, study length 104 weeks) was “negative (inactive)”, the TD50 (mouse, strain Charles River CD1, males, inhaled, site: any site (literature study), lesion: several types, types named in the paper, dosed 104 weeks, study length 104 weeks) was 1.63 mg/kg/day (inactive) and the carcinogen call (mouse, strain Charles River CD1, males, inhaled, site: liver, lesion: hepatocellular adenoma, dosed 104 weeks, study length 104 weeks) was “negative (inactive)”. The carcinogen call (mouse, strain Charles River CD1, males, inhaled, site: liver, lesion: hepatocellular carcinoma, dosed 104 weeks, study length 104 weeks) was “negative (inactive)”, the TD50 (mouse, strain Charles River CD1, males, inhaled, site: lung, lesion: adenoma, dosed 104 weeks, study length 104 weeks) was 0.3 mg/kg/day (inactive) and the carcinogen call (mouse, strain Charles River CD1, males, inhaled, site: lung, lesion: carcinoma, dosed 104 weeks, study length 104 weeks) was “negative (inactive)”. The carcinogen call (rat, strain Charles River CD (Sprague-Dawley), females, inhaled, site: any site (literature study), lesion: benign tumor, dosed 108 weeks, study length 108 weeks) was “negative (inactive)”, the TD50 (rat, strain Charles River CD (Sprague-Dawley), females, inhaled, site: any site (literature study), lesion: malignant tumor, dosed 108 weeks, study length 108 weeks) was 1.09 mg/kg/day (inactive) and the carcinogen call (rat, strain Charles River CD (Sprague-Dawley), females, inhaled, site: any site (literature study), lesion: several types, types named in the paper, dosed 108 weeks, study length 108 weeks) was “negative (inactive)”. For the same compound, the TD50 (rat, strain Charles River CD (Sprague-Dawley), females, inhaled, site: liver, lesion: hepatocellular carcinoma, dosed 108 weeks, study length 108 weeks) was 8.24 mg/kg/day (inactive), the carcinogen call (rat, strain Charles River CD (Sprague-Dawley), males, inhaled, site: any site (literature study), lesion: benign tumor, dosed 110 weeks, study length 110 weeks) was “negative (inactive)” and the TD50 (rat, strain Charles River CD (Sprague-Dawley), males, inhaled, site: any site (literature study), lesion: malignant tumor, dosed 110 weeks, study length 110 weeks) was 6.18 mg/kg/day (inactive). For the same compound, the carcinogen call (rat, strain Charles River CD (Sprague-Dawley), males, inhaled, site: any site (literature study), lesion: several types, types named in the paper, dosed 110 weeks, study length 110 weeks) was “negative (inactive)”, the carcinogen call (rat, strain Charles River CD (Sprague-Dawley), males, inhaled, site: liver, lesion: hepatocellular carcinoma, dosed 110 weeks, study length 110 weeks) was “negative (inactive)” and the TD50 (rat, strain Fischer 344, females, by gavage, site: adrenal gland, lesion: cortical adenoma, dosed 106 weeks, study length 108 weeks) was 174 mg/kg/day. The TD50 (rat, strain Fischer 344, females, by gavage, site: adrenal gland, lesion: pheochromocytoma, dosed 106 weeks, study length 108 weeks) was 143 mg/kg/day, the TD50 (rat, strain Fischer 344, females, by gavage, site: any site (literature study), lesion: several types, types named in the paper, dosed 106 weeks, study length 108 weeks) was 25.1 mg/kg/day and the TD50 (rat, strain Fischer 344, females, by gavage, site: clitoral gland, lesion: adenoma, NOS, dosed 106 weeks, study length 108 weeks) was 260 mg/kg/day. The TD50 (rat, strain Fischer 344, females, by gavage, site: liver + mammary gland + pancreatic islets + subcutaneous tissue, lesion: neoplastic nodule + fibroadenoma + islet-cell adenoma + fibrosarcoma + fibroma, dosed 106 weeks, study length 108 weeks) was 25.4 mg/kg/day, the TD50 (rat, strain Fischer 344, females, by gavage, site: liver, lesion: hepatocellular adenoma + hepatocellular carcinoma + neoplastic nodule, dosed 106 weeks, study length 108 weeks) was 92.2 mg/kg/day and the TD50 (rat, strain Fischer 344, females, by gavage, site: liver, lesion: neoplastic nodule, dosed 106 weeks, study length 108 weeks) was 92.2 mg/kg/day. For the same compound, the TD50 (rat, strain Fischer 344, females, by gavage, site: mammary gland, lesion: fibroadenoma, dosed 106 weeks, study length 108 weeks) was 33.4 mg/kg/day, the TD50 (rat, strain Fischer 344, females, by gavage, site: pancreatic islets, lesion: islet-cell adenoma + islet-cell carcinoma, dosed 106 weeks, study length 108 weeks) was 115 mg/kg/day and the TD50 (rat, strain Fischer 344, females, by gavage, site: pancreatic islets, lesion: islet-cell adenoma, dosed 106 weeks, study length 108 weeks) was 135 mg/kg/day. The TD50 (rat, strain Fischer 344, females, by gavage, site: pituitary gland, lesion: chromophobe adenoma + chromophobe carcinoma, dosed 106 weeks, study length 108 weeks) was 86.9 mg/kg/day, the TD50 (rat, strain Fischer 344, females, by gavage, site: pituitary gland, lesion: chromophobe adenoma, dosed 106 weeks, study length 108 weeks) was 77.3 mg/kg/day and the TD50 (rat, strain Fischer 344, females, by gavage, site: subcutaneous tissue, lesion: fibroma, dosed 106 weeks, study length 108 weeks) was 256 mg/kg/day. It also gave a TD50 (rat, strain Fischer 344, females, by gavage, site: subcutaneous tissue, lesion: fibrosarcoma + fibroma, dosed 106 weeks, study length 108 weeks) of 206 mg/kg/day, a TD50 (rat, strain Fischer 344, males, by gavage, site: any site (literature study), lesion: several types, types named in the paper, dosed 106 weeks, study length 108 weeks) of 18.4 mg/kg/day and a TD50 (rat, strain Fischer 344, males, by gavage, site: liver, lesion: hepatocellular adenoma + hepatocellular carcinoma + neoplastic nodule, dosed 106 weeks, study length 108 weeks) of 196 mg/kg/day. For the same compound, the TD50 (rat, strain Fischer 344, males, by gavage, site: pancreas + subcutaneous tissue, lesion: acinar-cell adenoma + fibrosarcoma + fibroma, dosed 106 weeks, study length 108 weeks) was 27.3 mg/kg/day, the TD50 (rat, strain Fischer 344, males, by gavage, site: pancreas, lesion: acinar-cell adenoma, dosed 106 weeks, study length 108 weeks) was 51.6 mg/kg/day and the TD50 (rat, strain Fischer 344, males, by gavage, site: pancreatic islets, lesion: islet-cell adenoma + islet-cell carcinoma, dosed 106 weeks, study length 108 weeks) was 201 mg/kg/day. It also gave a TD50 (rat, strain Fischer 344, males, by gavage, site: pituitary gland, lesion: chromophobe adenoma + chromophobe carcinoma, dosed 106 weeks, study length 108 weeks) of 83.7 mg/kg/day, a TD50 (rat, strain Fischer 344, males, by gavage, site: pituitary gland, lesion: chromophobe adenoma, dosed 106 weeks, study length 108 weeks) of 76.4 mg/kg/day and a TD50 (rat, strain Fischer 344, males, by gavage, site: subcutaneous tissue, lesion: fibroma, dosed 106 weeks, study length 108 weeks) of 56 mg/kg/day. For the same compound, the TD50 (rat, strain Fischer 344, males, by gavage, site: subcutaneous tissue, lesion: fibrosarcoma + fibroma, dosed 106 weeks, study length 108 weeks) was 34.1 mg/kg/day, the TD50 (rat, strain Fischer 344, males, by gavage, site: subcutaneous tissue, lesion: fibrosarcoma + osteosarcoma + sarcoma, NOS, dosed 106 weeks, study length 108 weeks) was 103 mg/kg/day and the TD50 (rat, strain Fischer 344, males, by gavage, site: subcutaneous tissue, lesion: fibrosarcoma, dosed 106 weeks, study length 108 weeks) was 92.4 mg/kg/day. For the same compound, the TD50 (rat, strain Fischer 344, males, by gavage, site: testis, lesion: interstitial-cell tumor + interstitial-cell tumor, malignant, dosed 106 weeks, study length 108 weeks) was 13.6 mg/kg/day.
`COC(C(=O)O)c1ccccc1` (configuration not stated) was tested, and the TD50 (mouse, strain B6AKF1, females, oral dosing, site: any site (literature study), lesion: several types, types named in the paper, dosed 76 weeks, study length 76 weeks) was 227 mg/kg/day (inactive), the carcinogen call (mouse, strain B6AKF1, females, oral dosing, site: liver, lesion: hepatoma, dosed 76 weeks, study length 76 weeks) was “negative (inactive)” and the TD50 (mouse, strain B6AKF1, females, oral dosing, site: lung, lesion: adenoma, dosed 76 weeks, study length 76 weeks) was 236 mg/kg/day (inactive). For the same compound, the TD50 (mouse, strain B6AKF1, males, oral dosing, site: any site (literature study), lesion: several types, types named in the paper, dosed 76 weeks, study length 76 weeks) was 139 mg/kg/day (inactive), the TD50 (mouse, strain B6AKF1, males, oral dosing, site: liver, lesion: hepatoma, dosed 76 weeks, study length 76 weeks) was 3620 mg/kg/day (inactive) and the TD50 (mouse, strain B6AKF1, males, oral dosing, site: lung, lesion: adenoma, dosed 76 weeks, study length 76 weeks) was 157 mg/kg/day (inactive). For the same compound, the TD50 (mouse, strain B6C3F1, females, oral dosing, site: any site (literature study), lesion: several types, types named in the paper, dosed 76 weeks, study length 76 weeks) was 157 mg/kg/day (inactive), the carcinogen call (mouse, strain B6C3F1, females, oral dosing, site: liver, lesion: hepatoma, dosed 76 weeks, study length 76 weeks) was “negative (inactive)” and the TD50 (mouse, strain B6C3F1, females, oral dosing, site: lung, lesion: adenoma, dosed 76 weeks, study length 76 weeks) was 244 mg/kg/day (inactive). The TD50 (mouse, strain B6C3F1, males, oral dosing, site: all sites, lesion: reticulum-cell sarcoma, dosed 76 weeks, study length 76 weeks) was 82.1 mg/kg/day (inactive), the TD50 (mouse, strain B6C3F1, males, oral dosing, site: any site (literature study), lesion: several types, types named in the paper, dosed 76 weeks, study length 76 weeks) was 54.2 mg/kg/day (inactive) and the TD50 (mouse, strain B6C3F1, males, oral dosing, site: liver, lesion: hepatoma, dosed 76 weeks, study length 76 weeks) was 227 mg/kg/day (inactive). The carcinogen call (mouse, strain B6C3F1, males, oral dosing, site: lung, lesion: several types, types named in the paper, dosed 76 weeks, study length 76 weeks) was “negative (inactive)”.
`O=c1c(CO)c/c(=N/Nc2ccc(S(=O)(=O)O)c3ccccc23)c(=O)/c1=N/Nc1ccc(S(=O)(=O)O)c2ccccc12` was tested, and the TD50 (mouse, strain Tuck, females, in feed, site: all sites, lesion: lymphosarcoma, dosed 80 weeks, study length 80 weeks) was 36.3 mg/kg/day (inactive), the TD50 (mouse, strain Tuck, females, in feed, site: liver, lesion: hyperplastic nodule, dosed 80 weeks, study length 80 weeks) was 8440 mg/kg/day (inactive) and the carcinogen call (mouse, strain Tuck, females, in feed, site: lung, lesion: adenoma, dosed 80 weeks, study length 80 weeks) was “negative (inactive)”. The TD50 (mouse, strain Tuck, males, in feed, site: liver, lesion: hyperplastic nodule, dosed 80 weeks, study length 80 weeks) was 106000 mg/kg/day (inactive), the carcinogen call (mouse, strain Tuck, males, in feed, site: liver, lesion: liver-cell adenoma, dosed 80 weeks, study length 80 weeks) was “negative (inactive)” and the carcinogen call (mouse, strain Tuck, males, in feed, site: lung, lesion: adenoma, dosed 80 weeks, study length 80 weeks) was “negative (inactive)”.
